Broadly, the Ki is a measure of affinity in units of concentration, obtained from inhibition or displacement.

For the test, the target named is recombinant Mcl-1 (residues 172-327) (Homo sapiens (Human), UniProt Q07820). In words: Fluorescence polarization anisotropy competition assay (FITC-Bak or FITC-Bim BH3 peptide) with Mcl-1. To be noted: Table 2; Ki bins given in nM; FITC-Bak or FITC-Bim peptide competition; Ki converted from IC50; read-out: Ki for Inhibition of Mcl-1. Type of test: binding. (Fluorescence polarisation rises when a labelled molecule tumbles more slowly, as on binding a larger partner.)
Sequence of recombinant Mcl-1 (residues 172-327) (Q07820 172-327): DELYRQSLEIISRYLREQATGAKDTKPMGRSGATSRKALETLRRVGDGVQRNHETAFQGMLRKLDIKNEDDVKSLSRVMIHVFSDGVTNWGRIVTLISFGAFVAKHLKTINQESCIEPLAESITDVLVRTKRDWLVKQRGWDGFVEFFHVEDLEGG

For `Cc1cc(OCCCc2c(C(=O)N3CCN(c4ccc(C(=O)O)cc4)CC3)[nH]c3c(-c4c(C)nn(C)c4C)c(Cl)ccc23)cc(C)c1Cl` [I-335, 4-(4-(6-chloro-3-(3-(4-chloro-3,5-dimethylphenoxy)propyl)-7-(1,3,5-trimethyl-1H-pyrazol-4-yl)-1H-indole-2-carbonyl)piperazin-1-yl)benzoic acid], the Ki was less than 50 nM.
With `Cc1cc(OCCCc2c(C(=O)N3CCC(C(=O)O)C3)[nH]c3c(-c4c(C)nn(C)c4C)c(Cl)ccc23)cc(C)c1Cl` (centres unmarked) [I-336, 1-(6-chloro-3-(3-(4-chloro-3,5-dimethylphenoxy)propyl)-7-(1,3,5-trimethyl-1H-pyrazol-4-yl)-1H-indole-2-carbonyl)pyrrolidine-3-carboxylic acid], the inhibitory constant (Ki) was less than 50 nM.
In the case of `Cc1cc(OCCCc2c(C(=O)N3CCC[C@H]3C(=O)O)[nH]c3c(-c4c(C)nn(C)c4C)c(Cl)ccc23)cc(C)c1Cl` [I-337, (6-chloro-3-(3-(4-chloro-3,5-dimethylphenoxy)propyl)-7-(1,3,5-trimethyl-1H-pyrazol-4-yl)-1H-indole-2-carbonyl)-L-proline] it was less than 50 nM; in that of `Cc1cc(OCCCc2c(C(=O)N3CCN(c4ccc(C(=O)O)cc4)CC3)n(Cc3cccnc3)c3c(-c4c(C)nn(C)c4C)c(Cl)ccc23)cc(C)c1Cl` [I-338, 4-(4-(6-chloro-3-(3-(4-chloro-3,5-dimethylphenoxy)propyl)-1-(pyridin-3-ylmethyl)-7-(1,3,5-trimethyl-1H-pyrazol-4-yl)-1H-indole-2-carbonyl)piperazin-1-yl)benzoic acid], less than 50 nM.
As for `Cc1cc(OCCCc2c(C(=O)N3CCN(c4ccc(C(=O)O)cc4)CC3)n(C)c3c(-c4c(C)nn(C)c4C)c(Cl)ccc23)cc(C)c1Cl` [I-339, 4-(4-(6-chloro-3-(3-(4-chloro-3,5-dimethylphenoxy)propyl)-1-methyl-7-(1,3,5-trimethyl-1H-pyrazol-4-yl)-1H-indole-2-carbonyl)piperazin-1-yl)benzoic acid], the figure is less than 50 nM; as for `Cc1cc(OCCCc2c(C(=O)N3CCN(c4ccc(C(=O)O)cc4)CC3)n(Cc3ccncc3)c3c(-c4c(C)nn(C)c4C)c(Cl)ccc23)cc(C)c1Cl` [I-340, 4-(4-(6-chloro-3-(3-(4-chloro-3,5-dimethylphenoxy)propyl)-1-(pyridin-4-ylmethyl)-7-(1,3,5-trimethyl-1H-pyrazol-4-yl)-1H-indole-2-carbonyl)piperazin-1-yl)benzoic acid], 51 to 100 nM.
For `Cc1cc(OCCCc2c(C(=O)N3CCN(c4ccc(C(=O)O)cc4)CC3)n(Cc3ccccn3)c3c(-c4c(C)nn(C)c4C)c(Cl)ccc23)cc(C)c1Cl` [I-341, 4-(4-(6-chloro-3-(3-(4-chloro-3,5-dimethylphenoxy)propyl)-1-(pyridin-2-ylmethyl)-7-(1,3,5-trimethyl-1H-pyrazol-4-yl)-1H-indole-2-carbonyl)piperazin-1-yl)benzoic acid], the inhibitory constant (Ki) is less than 50 nM.
In the case of `Cc1cc(OCCCc2c(C(=O)N3CCN(c4ccc(C(=O)O)cc4)CC3)n(Cc3ccccc3)c3c(-c4c(C)nn(C)c4C)c(Cl)ccc23)cc(C)c1Cl` [I-342, 4-(4-(1-benzyl-6-chloro-3-(3-(4-chloro-3,5-dimethylphenoxy)propyl)-7-(1,3,5-trimethyl-1H-pyrazol-4-yl)-1H-indole-2-carbonyl)piperazin-1-yl)benzoic acid] it was 51 to 100 nM.
As for `Cc1cc(OCCCc2c(C(=O)N3CCN(c4ccc(C(=O)O)cn4)CC3)[nH]c3c(-c4c(C)nn(C)c4C)c(Cl)ccc23)cc(C)c1Cl` [I-344, 6-(4-(6-chloro-3-(3-(4-chloro-3,5-dimethylphenoxy)propyl)-7-(1,3,5-trimethyl-1H-pyrazol-4-yl)-1H-indole-2-carbonyl)piperazin-1-yl)nicotinic acid], the figure is less than 50 nM.
For the compound `Cc1cc(OCCCc2c3n(c4c(-c5c(C)nn(C)c5C)c(Cl)ccc24)CCCN(C2SC(=O)NC2C(=O)O)C3=O)cc(C)c1Cl` (centres unmarked) [I-346, 5-(8-chloro-11-(3-(4-chloro-3,5-dimethylphenoxy)propyl)-1-oxo-7-(1,3,5-trimethyl-1H-pyrazol-4-yl)-4,5-dihydro-1H-[1,4]diazepino[1,2-a]indol-2(3H)-yl)-2-oxothiazolidine-4-carboxylic acid], the Ki was less than 50 nM.
In the case of `Cc1cc(OCCCc2c3n(c4c(-c5c(C)nn(C)c5C)c(Cl)ccc24)CCCN(Cc2cc(C(=O)O)c(C)o2)C3=O)cc(C)c1Cl` [I-347, 5-((8-chloro-1-(3-(4-chloro-3,5-dimethylphenoxy)propyl)-1-oxo-7-(1,3,5-trimethyl-1H-pyrazol-4-yl)-4,5-dihydro-1H-[1,4]diazepino[1,2-a]indol-2(3H)-yl)methyl)-2-methylfuran-3-carboxylic acid] it was less than 50 nM; in that of `Cc1cc(OCCCc2c3n(c4c(-c5c(C)nn(C)c5C)c(Cl)ccc24)CCCN(c2cccc4c2ccn4CC(=O)O)C3=O)cc(C)c1Cl` [I-348, 2-(4-(8-chloro-11-(3-(4-chloro-3,5-dimethylphenoxy)propyl)-1-oxo-7-(1,3,5-trimethyl-1H-pyrazol-4-yl)-4,5-dihydro-1H-[1,4]diazepino[1,2-a]indol-2(3H)-yl)-1H-indol-1-yl)acetic acid], less than 50 nM; in that of `Cc1cc(OCCCc2c3n(c4c(-c5c(C)nn(C)c5C)c(Cl)ccc24)CCCN(Cc2cc(C(=O)O)cc(Cl)n2)C3=O)cc(C)c1Cl` [I-349, 2-chloro-6-((8-chloro-1-(3-(4-chloro-3,5-dimethylphenoxy)propyl)-1-oxo-7-(1,3,5-trimethyl-1H-pyrazol-4-yl)-4,5-dihydro-1H-[1,4]diazepino[1,2-a]indol-2(3H)-yl)methyl)isonicotinic acid], less than 50 nM.
Take `Cc1cc(OCCCc2c3n(c4c(-c5c(C)nn(C)c5C)c(Cl)ccc24)CCCN(c2scnc2C(=O)O)C3=O)cc(C)c1Cl` [I-350, 5-(8-chloro-11-(3-(4-chloro-3,5-dimethylphenoxy)propyl)-1-oxo-7-(1,3,5-trimethyl-1H-pyrazol-4-yl)-4,5-dihydro-1H-[1,4]diazepino[1,2-a]indol-2(3H)-yl)thiazole-4-carboxylic acid]: the Ki is less than 50 nM.
In the case of `Cc1cc(OCCCc2c(C(=O)Nc3cccc(C#N)c3)[nH]c3c(-c4c(C)nn(C)c4C)c(Cl)ccc23)cc(C)c1Cl` [I-352, 6-chloro-3-(3-(4-chloro-3,5-dimethylphenoxy)propyl)-N-(3-cyanophenyl)-7-(1,3,5-trimethyl-1H-pyrazol-4-yl)-1H-indole-2-carboxamide] it was 51 to 100 nM; in that of `Cc1cc(OCCCc2c3n(c4c(-c5c(C)nn(C)c5C)c(Cl)ccc24)CCCN(c2cccc(C#N)c2)C3=O)cc(C)c1Cl` [I-353, 3-(8-chloro-11-(3-(4-chloro-3,5-dimethylphenoxy)propyl)-1-oxo-7-(1,3,5-trimethyl-1H-pyrazol-4-yl)-4,5-dihydro-1H-[1,4]diazepino[1,2-a]indol-2(3H)-yl)benzonitrile], 51 to 100 nM; in that of `Cc1cc(OCCCc2c3n(c4c(-c5c(C)nn(C)c5C)c(Cl)ccc24)CCCN(c2cccc(-c4nn[nH]n4)c2)C3=O)cc(C)c1Cl` [I-354, 2-(3-(2H-tetrazol-5-yl)phenyl)-8-chloro-1-(3-(4-chloro-3,5-dimethylphenoxy)propyl)-7-(1,3,5-trimethyl-1H-pyrazol-4-yl)-2,3,4,5-tetrahydro-1H-[1,4]diazepino[1,2-a]indol-1-one], less than 50 nM.
Consider `Cc1cc(OCCCc2c(C(=O)Nc3ccc(C#N)cc3)[nH]c3c(-c4c(C)nn(C)c4C)c(Cl)ccc23)cc(C)c1Cl` [I-355, 6-chloro-3-(3-(4-chloro-3,5-dimethylphenoxy)propyl)-N-(4-cyanophenyl)-7-(1,3,5-trimethyl-1H-pyrazol-4-yl)-1H-indole-2-carboxamide], for which the inhibitory constant (Ki) fell in the range of 51 to 100 nM.
Consider `Cc1cc(OCCCc2c3n(c4c(-c5c(C)nn(C)c5C)c(Cl)ccc24)CCCN(c2ccc(C#N)cc2)C3=O)cc(C)c1Cl` [I-356, 4-(8-chloro-11-(3-(4-chloro-3,5-dimethylphenoxy)propyl)-1-oxo-7-(1,3,5-trimethyl-1H-pyrazol-4-yl)-4,5-dihydro-1H-[1,4]diazepino[1,2-a]indol-2(3H)-yl)benzonitrile], for which the Ki lay within 51 to 100 nM.
For `Cc1cc(OCCCc2c3n(c4c(-c5c(C)nn(C)c5C)c(Cl)ccc24)CCCN(c2ccc(-c4nn[nH]n4)cc2)C3=O)cc(C)c1Cl` [I-357, 2-(4-(2H-tetrazol-5-yl)phenyl)-8-chloro-1-(3-(4-chloro-3,5-dimethylphenoxy)propyl)-7-(1,3,5-trimethyl-1H-pyrazol-4-yl)-2,3,4,5-tetrahydro-1H-[1,4]diazepino[1,2-a]indol-1-one], the Ki was less than 50 nM.
As for `Cc1cc(OCCCc2c3n(c4c(-c5c(C)nn(C)c5C)c(Cl)ccc24)CCCN(c2ncc(C(=O)O)s2)C3=O)cc(C)c1Cl` [I-358, 2-(8-chloro-11-(3-(4-chloro-3,5-dimethylphenoxy)propyl)-1-oxo-7-(1,3,5-trimethyl-1H-pyrazol-4-yl)-4,5-dihydro-1H-[1,4]diazepino[1,2-a]indol-2(3H)-yl)thiazole-5-carboxylic acid], the figure is less than 50 nM; as for `Cc1cc(OCCCc2c3n(c4c(-c5c(C)nn(C)c5C)c(Cl)ccc24)CCCN(c2nc(C(=O)O)cs2)C3=O)cc(C)c1Cl` [I-359, 2-(8-chloro-11-(3-(4-chloro-3,5-dimethylphenoxy)propyl)-1-oxo-7-(1,3,5-trimethyl-1H-pyrazol-4-yl)-4,5-dihydro-1H-[1,4]diazepino[1,2-a]indol-2(3H)-yl)thiazole-4-carboxylic acid], less than 50 nM; as for `Cc1cc(OCCCc2c3n(c4c(-c5c(C)nn(C)c5C)c(Cl)ccc24)CCCN(c2csc(C(=O)O)n2)C3=O)cc(C)c1Cl` [I-360, 4-(8-chloro-11-(3-(4-chloro-3,5-dimethylphenoxy)propyl)-1-oxo-7-(1,3,5-trimethyl-1H-pyrazol-4-yl)-4,5-dihydro-1H-[1,4]diazepino[1,2-a]indol-2(3H)-yl)thiazole-2-carboxylic acid], less than 50 nM.

The values above are taken from US10533010B2, “Substituted indole Mcl-1 inhibitors” (Vanderbilt University, priority 2014, dated 2020).
